Measurements reported in paper PMC6968694 (Emerging Microbes & Infections, 2020).

How the values were obtained:
phBCCPPurT = molecular target: T1, phBCCPPurT (Pyrococcus horikoshii, UniProt O58056); experiment: biochemical; type: binding; details: read-out: apparent Kd
T1 construct: gene purT

SEC = molecular target: the molecule itself; experiment: SEC

T1 sequence (O58056 whole entry): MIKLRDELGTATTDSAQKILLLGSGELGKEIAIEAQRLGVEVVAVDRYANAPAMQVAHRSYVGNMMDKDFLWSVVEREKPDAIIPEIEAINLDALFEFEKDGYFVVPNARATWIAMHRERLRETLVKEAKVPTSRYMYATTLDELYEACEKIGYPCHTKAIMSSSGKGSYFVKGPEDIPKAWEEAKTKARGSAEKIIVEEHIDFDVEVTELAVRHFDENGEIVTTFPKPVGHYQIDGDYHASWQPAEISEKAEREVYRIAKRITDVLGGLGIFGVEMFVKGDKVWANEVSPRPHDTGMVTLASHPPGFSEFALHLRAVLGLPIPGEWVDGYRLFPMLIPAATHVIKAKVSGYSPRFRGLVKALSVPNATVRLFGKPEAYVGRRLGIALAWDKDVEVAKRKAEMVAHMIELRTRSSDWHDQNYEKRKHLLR

With `Nc1ncnc2c1ncn2[C@@H]1O[C@H](CO[P@](=O)(O)O[P@](=O)(O)O[P@@](=O)(O)S)[C@@H](O)[C@H]1O` [ATPγS] as the molecule, how does the Kd (phBCCPPurT) read?
The Kd was 41.8 ± 7.21 µM.

B1: Glycinamide-RNase-transformylase T from Mycobacterium tuberculosis (enzyme)
chain: MIDGWTEEQHEPTVRHERPAAPQDVRRVMLLGSAEPSRELAIALQGLGAEVIAVDGYVGAPAHRIADQSVVVTMTDAEELTAVIRRLQPDFLVTVTAAVSVDALDAVEQADGECTELVPNARAVRCTADREGLRRLAADQLGLPTAPFWFVGSLGELQAVAVHAGFPLLVSPVAGVAGQGSSVVAGPNEVEPAWQRAAGHQVQPQTGGVSPRVCAESVVEIEFLVTMIVVCSQGPNGPLIEFCAPIGHRDADAGELESWQPQKLSTAALDAAKSIAARIVKALGGRGVFGVELMINGDEVYFADVTVCPAGSAWVTVRSQRLSVFELQARAILGLAVDTLMISPGAARVINPDHTAGRAAVGAAPPADALTGALGVPESDVVIFGRGLGVALATAPEVAIARERAREVASRLNVPDSRE
notes: also called MtbPurT; PurT
For B1, which “stoichiometry N” value (SEC) is on record?
The value was 2.
